The results in this text go back to US9051310B2, “Nicotinamide derivative or salt thereof” (FUJIFILM Corporation, priority 2011, dated 2015).

The test concerns the target T1, glutathione S-transferase (GST)-linked full-length human Syk protein (Homo sapiens, UniProt P43405).
T1 construct: glutathione S-transferase (GST)-linked full-length human Syk protein; purchased Carna Biosciences; host or cells: Baculovirus expression system
Nature of the test: Syk enzyme assay. As to conditions: 0.83 nM Syk, time-resolved fluorescence; read-out: IC50 of Syk-inhibitory activity. The format is biochemical. As for the experimental part: A glutathione S-transferase (GST)-linked full-length human Syk protein (Carna Biosciences), which had been generated using a Baculovirus expression system, was used in the Syk enzyme assay.
7.5 μl of a reaction solution (0.83 nM Syk, 20 mM HEPES, 10 mM MgCl2, 50 mM NaCl, 2 mM DTT, 0.05% BSA, pH 7.0) containing a Syk protein and a predetermined concentration of a test compound was shaken for 2 minutes, and it was then left at rest at room temperature for 13 minutes. Thereafter, 0.5 μM substrate peptide (Biotin-[…]-NH2) and 5 μL of a solution containing 67.5 μM ATP were added to the reaction solution, and the obtained mixture was then shaken for 2 minutes. The reaction solution was further left at rest at room temperature for 40 minutes, so as to carry out an enzyme reaction.
Thereafter, 50 μL of a reaction termination solution [60 nM APC-SA, 0.45 μg/mL Eu-PT66, 30 mM HEPES (pH 7.0), 150 mM KF, 30 mM EDTA, 0.15% BSA, 0.075% Tween20] containing Allophycocyanin-Streptavidin (APC-SA; PerkinElmer) and an Eu-W1024-labeled anti-phosphotyrosine PT66 antibody (Eu-PT66; PerkinElmer) was added to the reaction solution to terminate the enzyme reaction. At the same time, the reaction solution was left at rest at room temperature for 1 hour, so as to carry out an antigen-antibody reaction. Thereafter, using EnVision (PerkinElmer), the level of time-resolved fluorescence was measured at 615 nm and 665 nm, so that the phosphorylation of the substrate peptide was measured.
The following are used in Table 5 to denote standards for evaluating IC50 of Syk-inhibitory activity. • A: Up to 10 nM • B: 10 to 50 nM • C: 50 to 100 nM

What is called IC50 is the midpoint of a concentration-inhibition curve. For the compound `CC[C@@H](Nc1nc(Nc2cncc3c2cnn3CC(F)F)c(C(N)=O)cc1F)[C@H](C)N` [Example 2-396, 6-(((2S,3R)-2-aminopentan-3-yl)amino)-2-((1-(2,2-difluoroethyl)-1H-pyrazolo[3,4-c]pyridin-4-yl)amino)-5-fluoronicotinamide], the IC50 was less than 10 nM.
`CCCC[C@@H](Nc1nc(Nc2cccc3c2cnn3CCOC)c(C(N)=O)cc1F)[C@H](C)N` [Example 2-307, 6-(((2S,3R)-2-aminoheptan-3-yl)amino)-5-fluoro-2-((1-(2-methoxyethyl)-1H-indazol-4-yl)amino)nicotinamide]: the IC50 was less than 10 nM.
As to `COc1ccc([C@@H](Nc2nc(Nc3ccc4ncccc4c3)c(C(N)=O)cc2F)[C@H](C)N)cc1` [Example 2-337, 6-(((1R,2S)-2-amino-1-(4-methoxyphenyl)propyl)amino)-5-fluoro-2-(quinolin-6-ylamino)nicotinamide], the IC50 lay in the range of 50 to 100 nM.
For the compound `COCCOc1cc(Nc2nc(N[C@H](C)[C@@H](N)C3CC3)c(F)cc2C(N)=O)ccn1` [Example 2-228, 6-(((1S,2R)-1-amino-1-cyclopropylpropan-2-yl)amino)-5-fluoro-2-((2-(2-methoxyethoxy)pyridin-4-yl)amino)nicotinamide], the IC50 fell in the range of 50 to 100 nM.
As for `COCCNc1nn(CCOC)c2ccc(Nc3nc(N[C@@H]4CCCC[C@@H]4N)c(F)cc3C(N)=O)cc12` [Example 2-535, 6-(((1R,2S)-2-aminocyclohexyl)amino)-5-fluoro-2-((1-(2-methoxyethyl)-3-((2-methoxyethyl)amino)-1H-indazol-5-yl)amino)nicotinamide], the IC50 is 10 to 50 nM.
Under `CC[C@H](N)[C@@H](C)Nc1nc(Nc2ccc3c(c2)c(N(C)C)nn3CCOC)c(C(N)=O)cc1F` [Example 2-507, 6-(((2R,3S)-3-aminopentan-2-yl)amino)-2-((3-(dimethylamino)-1-(2-methoxyethyl)-1H-indazol-5-yl)amino)-5-fluoronicotinamide] stands 50 to 100 nM; under `CCn1ncc2c(Nc3nc(N[C@@H]4CCCC[C@@H]4N)c(F)cc3C(N)=O)cc(F)cc21` [Example 2-369, 6-(((1R,2S)-2-aminocyclohexyl)amino)-2-((1-ethyl-6-fluoro-1H-indazol-4-yl)amino)-5-fluoronicotinamide], less than 10 nM; under `CC[C@@H](Nc1nc(Nc2ccc3c(c2)c(N(C)CCOC)nn3C)c(C(N)=O)cc1F)[C@H](C)N` [Example 2-458, 6-(((2S,3R)-2-aminopentan-3-yl)amino)-5-fluoro-2-((3-((2-methoxyethyl)(methyl)amino)-1-methyl-1H-indazol-5-yl)amino)nicotinamide], less than 10 nM.
For the compound `COc1ncc(Nc2nc(N[C@@H]3CCCC[C@@H]3N)c(F)cc2C(N)=O)c2cnn(C)c12` [Example 2-407, 6-(((1R,2S)-2-aminocyclohexyl)amino)-5-fluoro-2-((7-methoxy-1-methyl-1H-pyrazolo[3,4-c]pyridin-4-yl)amino)nicotinamide], the IC50 was 10 to 50 nM.
For `CCn1ncc2ccc(Nc3nc(N[C@H](C(C)C)[C@H](C)N)c(F)cc3C(N)=O)cc21` [Example 2-103, 6-(((2S,3R)-2-amino-4-methylpentan-3-yl)amino)-2-((1-ethyl-1H-indazol-6-yl)amino)-5-fluoronicotinamide], the IC50 was in the range of 50 to 100 nM.
Turning to `C[C@H](N)[C@H](Nc1nc(Nc2cnc(N3CCOCC3)c(F)c2)c(C(N)=O)cc1F)c1cccc(F)c1` [Example 2-451, 6-(((1R,2S)-2-amino-1-(3-fluorophenyl)propyl)amino)-5-fluoro-2-((5-fluoro-6-morpholinopyridin-3-yl)amino)nicotinamide], the IC50 is less than 10 nM.
Consider `CNc1ncc(Nc2nc(N[C@H](CC(C)C)[C@H](C)N)c(F)cc2C(N)=O)cc1F` [Example 2-278, 6-(((2S,3R)-2-amino-5-methylhexan-3-yl)amino)-5-fluoro-2-((5-fluoro-6-(methylamino)pyridin-3-yl)amino)nicotinamide], for which the IC50 lay in the range of 10 to 50 nM.
